From US20220090021A1, “IN VITRO HUMAN BLOOD BRAIN BARRIER” (Massachusetts Institute of Technology, priority 2019, published 2022)

How the values were obtained:
E3/3 iBBB = assay: Amyloid accumulation in E3/3 iBBB exposed to conditioned media from inhibitor-treated E4/4 pericytes; type: cell-based, human; conditions: media harvested from inhibitor-treated E4/4 pericytes, versus DMSO
Method: (§1) Amyloid accumulation was determined using both neuronal cell conditioned media and 20 nM recombinant labeled Hilyte fluor 488 β-amyloid (1-40) (Anaspec, AS-60491-01) and β-amyloid (1-42) (Anaspec, AS-60479-01) resuspended in PBS. Aβ accumulation for each cell line and experimental permutation was determined from 2D cultures containing all three cells types containing same ratio of cells as 3D experiments. Total area positive for Aβ was divided by the total number of nuclei and normalized to experimental controls. At least four images for each biological replicate were analyzed and for each condition at least three biological replicates were employed. 2D quantifications were corroborated by 3D imaging and analysis.
We then added 20 nM Aβ1-40/42-FITC to the cultures for an additional 48 hours after which we quantified the accumulation of AP-FITC for each condition.

APOE = APOE gene expression in iPSC-derived pericytes after two weeks of CaN inhibition (qRT-PCR); type: cell-based, human
Method: Total RNA was isolated using Trizol and zymogen RNA-direct spin column treated with DNAse on column of 30 minutes prior to washing and elution. For RT-PCRs, 500 ng of total RNA was reverse transcribed into cDNA with iScript (BioRad). Expression was quantified by SsoFast EvaGreen supermix (BioRad). For RNAsequencing, extracted total RNA was subject to QC using an Advanced Analytical-fragment Analyzer before library preparation using Illumina Neoprep stranded RNA-seq library preparation kit. Libraries were pooled for sequencing using Illumina HiSeq2000 or NextSeq500 platforms at the MIT Biomicro Center. The raw fastq data were aligned to human hg19 assembly using STAR 2.4.0 RNA-seq aligner. Mapped RNA-seq reads covering the edited APOE3/4 site were used to validate data genotypes. Gene raw counts were generated from the mapped data using feature Counts tool. The mapped reads were also processed by Cufflinks2.2 with hg19 reference gene annotation to estimate transcript abundances. Gene differential expression test between APOE3 and APOE4 groups of each cell type was performed using Cuffdiff module with adjusted q-value <0.05 for statistical significance. Geometric method was chosen as the library normalization method for Cuffdiff. Color-coded scatterplots were used to visualize group FPKM values for differentially expressed genes and other genes.

iBBB [1] = system: iBBB
Source text: To more fully assess the barrier properties of the iBBB we compared the paracellular permeability of molecules with molecular weights ranging from 0.1 to 80 kDa. […] To rule out the possibility that the reduced permeability of the iBBB was simply the result of additional layers of cells, we layered on top of BECs double the normal number of pericyte-only, astrocytes-only or a non-relevant cell type, mouse embryonic fibroblasts (MEFs).
The genotype distinction between APOE4/4 cells (isogenic) and APOE3/3 (parental) was assessed in terms of permeability of an iBBB membrane. FIG. 13A presents a schematic showing the iBBB with fluorescent molecules positioned on the Apical surface, which are then allowed to transition through the iBBB from the Apical surface to the Basolateral surface (FIG. 13B).

iBBB [2] = assay: Amyloid (Aβ-FITC) accumulation in iBBB; type: cell-based, human; conditions: APOE3/3 iBBB; APOE raised to approximately 200 ng/ml, E3 or E4; labeled Aβ for 96 hours
Method: as §1

O=C1C=CC(=O)C2=C1C1c3ccccc3C2c2ccccc21 [INCA6]
amyloid accumulation (E3/3 iBBB): significantly reduced
APOE expression (APOE; APOE4/4 pericytes, two weeks, CsA 2 μM, FK506 5 μM, INCA6 5 μM, qRT-PCR): significantly reduced
expression of APOE (APOE; E3/4 heterozygous pericytes from three individuals): significant reduction

Aβ42-FITC: FITC-labeled amyloid-β 1-42 peptide
permeability and accumulation on the Basolateral surface, APOE4/4 iBBB versus parental APOE3/3 iBBB (iBBB [1]): greater permeability

recombinant human APOE protein: recombinant human APOE protein (E3 or E4) added to iBBB culture media
Aβ accumulation (iBBB [2]): increase

transferrin: fluorescently labeled Transferrin (ThermoFisher T-13342), permeability tracer
permeability and accumulation on the Basolateral surface, APOE4/4 iBBB versus parental APOE3/3 iBBB (iBBB [1]): greater permeability
